From publication PMC11406516, “The Tuberculosis Drug Candidate SQ109 and Its Analogs Have Multistage Activity against Plasmodium falciparum” (ACS Infectious Diseases, 2024)
In brackets after ≈: the same amount, converted by molar mass. Where two headings read alike, the source gives them in different places. Marks after values point to notes of the source that are not given here.

How the values were obtained:
[1] = tested on: immature-stage gametocytes (IGc, stage II/III); experiment: Immature-stage gametocyte activity; format: cell-based; conditions: Plasmodium falciparum, 48 h drug pressure
Procedure: Figure 1 SQ109 is a gametocyte-targeting compound. (A) IC50 for parent compound SQ109/1 on asexual parasites (ABS), immature-stage gametocytes (IGc, stage II/III), or late-stage gametocytes (LGc, stage IV/V), under 48 h drug pressure. IC50 ABS: 1.58 ± 0.2 μM; IC50 IGc: 0.38 ± 0.10 μM; IC50 LGc: 0.14 ± 0.03 μM; ** P < 0.01 indicates IGc and LGc vs ABS. (B) Chemical structure and summary of the designed structure–activity relationships (SAR-1, SAR-2 and SAR-3) around SQ109/1. Data are from >2 independent biological repeats, mean ± SE indicated, unpaired Student’s t-test applied.

male gametes (PfNF54) [2] = tested on: male gametes (PfNF54); design: method as in Reader et al.[4]; conditions: ref Reader et al.[4]; cited from earlier work
HepG2 cells [3] = experiment: HepG2 cytotoxicity, LDH release assay; conditions: Homo sapiens, HepG2, 24 h, read-out: HepG2 EC50
clinical isolate SB03 = experiment: Ex vivo activity on clinical isolate SB03; format: cell-based; conditions: Plasmodium falciparum, read-out: IC50 SB03
Excerpt: (§1) Since SB03/05 are both multiclonal,[27] this warrants further investigation into the activity of this series toward clinical gametocytes.
(§2) (A) Dose–response analysis of SQ109 on clinical isolates SB03 and SB05 in comparison to lab-adapted NF54 P. falciparum parasites. Data are from at least 2 independent biological repeats, mean ± SE indicated, * P < 0.05 is indicated. (B) IC50 for SQ109 analogs 13 and 19 against a contemporary African field isolate SB05. […] TEXT PRINTED IN THE PICTURE: (A) SQ109/1: IC50 (μM), NF54: 1.58 ± 0.20; IC50 (μM), SB03: 0.63 ± 0.01; IC50 (μM), SB05: 0.90 DOUBTS OF THE COPYIST ABOUT THIS PICTURE: Panel A: the three IC50 values are matched to NF54, SB03 and SB05 only by line style (black dashed, grey solid, grey dashed), not by a printed label beside the numbers.

PfNF54 ABS = tested on: PfNF54 ABS; design: method as in Stampolaki et al.[5]; conditions: drug-sensitive NF54; ref Stampolaki et al.[5]; read-out: Pf ABS IC50 NF54; cited from earlier work
female gametes [4] = tested on: female gametes; design: method as in Reader et al.[4]; conditions: ref Reader et al.[4]; cited from earlier work
PfDd2 parasites = experiment: Asexual blood stage activity, chloroquine-resistant Dd2; format: cell-based; conditions: Plasmodium falciparum, DD2, read-out: Pf ABS IC50 (Dd2)
Excerpt: This strain is highly resistant to chloroquine and other antimalarials and is associated with increased export of e.g., chloroquine from the digestive vacuole.[23] This phenotype was also replicated in PfDd2 parasites, also resistant to chloroquine (among other antimalarials), with 4 and 5 losing activity but 1 similarly active (Table 1). These aromatic compounds may therefore be subject to resistance mechanisms similar to those found with chloroquine.

PfK1 = experiment: SYBR Green I proliferation assay, asexual blood stages, multidrug-resistant K1; conditions: for IC50: Plasmodium falciparum, K1, read-out: Pf ABS IC50 K1
in vitro = in vitro ADME; conditions: microsomes
Procedure: The microsomal stability assay used a single-point assay design (Di et al., 2004). Briefly, the compounds were incubated at 1 μM in human, rat, and mouse liver microsomes (0.4 mg/mL) for 30 min at 37 °C. Reactions were quenched by adding ice-cold acetonitrile containing internal standard (carbamazepine, 0.0236 μg/mL). The samples were then centrifuged, and the samples were analyzed by liquid chromatography with tandem mass spectrometry (LC-MS/MS) (Agilent Rapid Resolution HPLC, AB SCIEX 4500 MS) for the disappearance of the parent compound. Half-life, clearance and hepatic […] ratios were determined using standard equations.

oocyst formation [5] = conditions: cited from earlier work
[6] = tested on: African field isolate SB05; experiment: Ex vivo activity on clinical isolate SB05; format: cell-based, Plasmodium falciparum
Excerpt: as §1, §2

[7] = tested on: PfNF54 LGc (stage IV/V gametocytes); experiment: PrestoBlue late-stage gametocyte viability assay; format: cell-based, Plasmodium falciparum; conditions: for IC50: Plasmodium falciparum, stage IV/V gametocytes, 48 h drug pressure, read-out: PfNF54 LGc IC50
Procedure: Gametocytogenesis was induced on highly synchronized (>95%) asexual ring-stage parasites from PfNF54 at 0.5% parasitemia and 6% hematocrit and thereafter maintained in glucose-deprived media as previously described.[29],[15] After 3 days, the hematocrit was decreased to 4%. Parasites were maintained in complete culture media supplemented with 50 mM N-acetyl-glucosamine 5–10 days post induction to inhibit proliferation of residual asexual blood stages. Gametocyte progression and morphology was also monitored microscopically using Giemsa-stained thin smears.
activity against the sexual stages of P. falciparum was evaluated using the PrestoBlue fluorescence assay as previously described.[4] Activity was measured on PfNF54 stage IV/V gametocytes (2% gametocytemia, 5% hematocrit) previously seeded with compounds (in non-lethal DMSO) for 48 h drug pressure, after which PrestoBlue reagent was added and incubated for 2 h. Fluorescence was detected in the supernatant at 612 nm. Dihydroartemisinin (DHA) was used as a positive drug control.

physchem = format: physicochemical; conditions: 37 °C, pH 6.5, aqueous buffer, thermodynamic from solid
Procedure: The stock solutions (10^–2 M) of the assayed compounds were diluted to decreased molarity, from 300 to 0.1 μM, in 384 well transparent plate (Greiner 781801) with 1% DMSO:99% PBS buffer. Then, they were incubated at 37 °C and the light scattering was measured after 2 h in a NEPHELOstar Plus (BMG LABTECH). The results were adjusted to a segmented regression to obtain the maximum concentration in which compounds are soluble.
The solubility of each product was evaluated using an HPLC Agilent 1100 with a DAD detector. The samples were injected in an Agilent Poroshell 120 EC-C18, 2.7 μm, 50 mm × 4.6 mm column at 40 °C and 0.6 mL/min flow. The mobile phase was a mixture of A = water with 0.05% formic acid and B = acetonitrile with 0.05% formic acid. The procedure followed was from 95% A–5% B to 100% B in 3 min, 100% B in 3 min, from 100% B to 95% A–5% B in 1 min, 95% A–5% B in 3 min; the injection volume was set at 75 μL. […] The samples remained at these conditions between 12–24 h. Then, the samples were filtered through a 0.45 μm PVDF filter and either directly analyzed or diluted before analyzing. The obtained area under the curve was compared with the one from the standard solution.

female gametes [8] = experiment: Female gamete inhibition assay; format: cell-based, Plasmodium falciparum; design: concentration or dose not given beside the values
Procedure: Similarly, female gametes were activated as described previously.[31] Monoclonal anti-Pfs antibody conjugated to FITC was used to detect female gametes. Image acquisition was performed using a Zeiss Axio Lab.A1 epifluorescence microscope with a 100/1.4 numerical aperture (NA) oil immersion. Thirty images were captured per sample and analyzed manually.

male gametes (PfNF54) [9] = experiment: Male gamete exflagellation inhibition assay (EIA); format: cell-based; conditions: Plasmodium falciparum; 2 μM, 48 h; read-out: male gamete inhibition %
Procedure: The EIA was performed using video microscopy by capturing the movement of exflagellation centers over time as previously described.[4],[30] Mature PfNF54 stage V gametocytes (>95%;) were treated with 2 μM of drug for 48 h before the activation of exflagellation, without removing drug pressure. Movement was semi-automatically quantified from 15 videos of 8–10 s each between 15 and 22.5 min after incubation. Each video was analyzed using ICY-bio image analysis software.

HepG2 cells [10] = tested on: HepG2 cells; design: method as in Stampolaki et al.[5]; conditions: compound at 20 μM; ref Stampolaki et al.[5]; cited from earlier work
oocyst formation [11] = experiment: Standard membrane feeding assay (SMFA), oocyst formation in Anopheles coluzzii; format: in vivo; conditions: Plasmodium falciparum; 48 h drug treatment at 2 μM, single biological repeat; read-out: oocyst formation (% inhibition) TBA
Procedure: Transmission-blocking activity was confirmed in the standard membrane feeding assay (SMFA), by determining transmission-reducing activity (TRA; reduction in oocyst counts) and transmission-blocking activity (TBA, reduction in oocyst prevalence), 8–10 days after feeding female mosquitoes on gametocyte-infected blood, treated with selected compounds (at 2 μM).
SMFA was performed using glass feeders as is outlined.[4],[16] Once again, mature stage V gametocytes (>95%) were treated with 2 μM of each compound for 48 h prior to feeding. Anopheles coluzzii females were allowed to feed on gametocyte cultures (1.5–2.5% gametocytemia, 50% hematocrit in A+ male serum with fresh erythrocytes) in the dark for 40 min. All unfed or partially fed mosquitoes were removed, and remaining females housed for 8–10 days. Mosquitoes were dissected to remove midguts, and oocysts counted under bright field illumination at ×20–×40 magnification. The percentage of block in transmission (transmission-blocking activity; TBA) and the percentage of reduction in the number of oocysts (transmission-reducing activity; TRA) were calculated after normalizing to the control untreated sample.

[12] = 48 h drug treatment at 2 μM, ref Reader et al.[4]

CC(C)=CCC/C(C)=C/CNCCNC1C2CC3CC(C2)CC1C3 (stereo not shown) [Compound 1, N-geranyl-N′-(2-adamantyl)ethane-1,2-diamine, reference compound]
IC50 [1]: 0.38 µM
male gamete inhibition % (male gametes (PfNF54) [2]): 72.98 ± 5.97 ^c %
EC50 (HepG2 cells [3]): 9.21 ± 1.99 µM
IC50 (clinical isolate SB03): 0.63 ± 0.01 µM
IC50 (PfNF54 ABS): 1.58 ± 0.2 µM
female gamete inhibition % (female gametes [4]): 51.74 ± 5.40 ^c %
IC50 (PfDd2 parasites): 1.44 µM
IC50 (PfK1): 3.48 ± 0.24 µM
microsomal CLint at 1 µM (in vitro; human): 442 µL/min/mg
microsomal CLint at 1 µM (in vitro; mouse): 410 µL/min/mg
microsomal CLint at 1 µM (in vitro; rat): 385 µL/min/mg
oocyst formation (% inhibition) TBA (oocyst formation [5]; [12]): 36.0 ± 10.6 ^c %
oocyst formation (% inhibition) TRA (oocyst formation [5]; [12]): 76.0 ± 4.75 ^c %
transmission-reducing activity (oocyst formation [5]): 80%
IC50 ([6]; Plasmodium falciparum, read-out: IC50 SB05): 0.9 µM
shift in IC50, clinical isolates vs NF54 ([6]; contemporary African clinical isolates ex vivo): no significant shift
selectivity toward LGc compared to ABS ([7]; LGc IC50 vs ABS IC50): > 10 fold
IC50 [7]: 0.14 ± 0.03 µM

CC(C)=CCC/C(C)=C/CNCCNC1(Cc2ccccc2)C2CC3CC(C2)CC1C3 (stereo not shown) [Compound 4]
solubility (physchem): 13.9 µM (≈ 5.85 µg/mL)
female gamete inhibition % (female gametes [8]): 74.48 ± 2.26%
inhibition at 2 µM (male gametes (PfNF54) [9]): 43.9 ± 10.6%
IC50 (PfNF54 ABS): 0.32 ± 0.03 µM
IC50 (PfDd2 parasites): 8.11 µM
HepG2 % viability (HepG2 cells [10]): 100%^c
fold higher IC50 against PfK1 (PfK1; PfK1 vs NF54): 16 ×
IC50 (PfK1): > 5 µM
inhibition at 2 µM (oocyst formation [11]): 26%
IC50 [7]: 0.16 ± 0.02 µM
